# In PubChem BioAssay (NCI):
# Values joined by “and” are separate entries in the source; they are usually repeats but may differ in a detail not shown here. Identical values can stand only once.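 Briefly, cells in 96-well plates were exposed to five compound concentrations for 48 h, and endpoints were estimated by linear interpolation. Abbreviation: GI50, concentration required for 50% inhibition of growth. Definition used: TGI = concentration required for complete inhibition of growth.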
# Columns and labels:
# Assay in all cases: NCI tumour cell line growth inhibition, 48 h
# SN12C renal = test system: SN12C renal
# A549 NSCLC = test system: A549 NSCLC
# SK-MEL-2 melanoma = test system: SK-MEL-2 melanoma
# NCI-H226 lung = test system: NCI-H226 lung
# M14 melanoma = test system: M14 melanoma
# KM12 colon = test system: KM12 colon
# SK-OV-3 ovarian = test system: SK-OV-3 ovarian
# COLO 205 colon = test system: COLO 205 colon
# TK-10 renal = test system: TK-10 renal
# SK-MEL-28 melanoma = test system: SK-MEL-28 melanoma
Compound,TGI (SN12C renal) [µM],TGI (A549 NSCLC) [µM],TGI (SK-MEL-2 melanoma) [µM],TGI (NCI-H226 lung),TGI (M14 melanoma) [µM],TGI (KM12 colon) [µM],TGI (SK-OV-3 ovarian) [µM],TGI (COLO 205 colon) [µM],TGI (TK-10 renal) [µM],TGI (SK-MEL-28 melanoma) [µM],GI50 (SN12C renal),GI50 (A549 NSCLC) [µM],GI50 (SK-MEL-2 melanoma) [µM],GI50 (NCI-H226 lung) [µM],GI50 (M14 melanoma),GI50 (KM12 colon),GI50 (SK-OV-3 ovarian) [µM],GI50 (COLO 205 colon) [µM],GI50 (TK-10 renal),GI50 (SK-MEL-28 melanoma)
Nc1nc2nc3c(nc2c(=O)[nH]1)CN(c1ccc(C(=O)O)cc1)C3=O,> 100,> 100,> 100,> 100 µM,> 100,> 100,> 100,> 100,> 100,> 100,,,,,,,,,,
COC(=O)C1Cc2c([nH]c3ccccc23)[C@H](CC(C)C)N1 (some centres undefined),> 100,> 100,> 100,> 100 µM,> 100,> 100,> 100,> 100,> 100,> 100,,,,,,,,,,
CC1CN(CCO)CC(C)O1 (centres undefined),> 100,> 100,> 100,> 100 µM,> 100,> 100,> 100,> 100,> 100,> 100,,,,,,,,,,
CCCCC1(N=[N+]=[N-])C(=O)c2cccc3c2N(CCC3)C1=O (centres undefined),> 100,> 100,> 100,> 100 µM,> 100,> 100,> 100,> 100,> 100,> 100,,,,,,,,,,
COc1ccc(C(=O)/C=C/c2ccc(Cl)cc2)cc1S(N)(=O)=O,8.4,8.15,25.7,14.8 µM,5.68,3.78,18.6,4.84,7.81,12.7,2.72 µM,2.69,12.4,3.66,2.13 µM,1.73 µM,5.96,2.03,2.47 µM,3.24 µM
COc1ccc([C@H]2c3cc(OC)c(OC)cc3C=C(C=O)C2CO)cc1OC (some centres undefined),> 100,> 100,,> 100 µM,> 100,43.6,> 100,17.9,,> 100,5.7 µM,52.5,,> 100,4.41 µM,2.9 µM,4.23,3.91,,6.62 µM
CC(C)(O)Cn1c(=O)c(Oc2ccc(F)cc2F)cc2cnc(NC3CCOCC3)nc21,> 25,> 25,> 25,> 25 µM,> 25,> 25,> 25,> 25,> 25,> 25,> 25 µM,> 25,> 25,> 25,> 25 µM,> 25 µM,> 25,> 25,> 25 µM,> 25 µM
Cc1cc(O)c2c(c1)C[C@@H](O)C1=C2C(=O)c2c(O)ccc(OC3CC(O)C(OC4CC(OC5CCC(OC6CC(O)C(OC7CC(OC8CCC(O)C(C)O8)C(O)C(C)O7)C(C)O6)C(C)O5)C(O)C(C)O4)C(C)O3)c2C1=O (some centres undefined),,,,0.461 µM and 3.07 µM,,,,,,,0.307 µM and 1.94 µM,2.38,0.89,1.48,0.822 µM and 1.28 µM,1.78 µM and 1.11 µM,,0.539,2.13 µM and 2.93 µM,0.267 µM and 1.44 µM
O=C1CCC/C=C\C[C@H]2C=C(Cl)C(=O)/C2=C/C[C@H](CCCCC(F)(F)F)OC(=O)CCC/C=C\C[C@H]2C=C(Cl)C(=O)/C2=C/C[C@H](CCCCC(F)(F)F)O1,,2.61,2.11,1.23 µM,0.614,1.38,5.17,0.859,1.89,0.419,,0.429,0.329,0.263,0.192 µM,0.291 µM,1.72,0.246,0.346 µM,0.166 µM
CC(C)c1ccc2c(c1)CCC1C(C)(C)[C@@H](O)CC[C@]21C (some centres undefined),40.2,> 100,,38.5 µM,72.4,71.5,> 100,32.9,> 100,> 100,,,,,,,,,,
[N-]=[N+]=Nc1ccc(S(=O)(=O)Oc2cc(OS(=O)(=O)c3ccc(N=[N+]=[N-])cc3)cc(OS(=O)(=O)c3ccc(N=[N+]=[N-])cc3)c2)cc1,> 10,> 100,> 100,> 10 µM,> 100,> 100,,> 10,> 100,> 100,,,,,,,,,,
CCOP1(=O)OCC2OC(n3cnc4c(N)ncnc43)C(O)C2O1 (centres undefined),> 100,> 100,> 100,> 100 µM,> 100,> 100,> 100,> 100,> 100,> 100,,,,,,,,,,
Cc1cc(Cl)n2c(nc3ccccc32)c1C#N,8.33,7.43,2.25,10 µM,2.04,1.44,15.6,0.803,10.9,6.34,0.499 µM,0.385,0.396,1.54,0.395 µM,0.341 µM,3.81,0.296,0.898 µM,1.4 µM
O=C(CC(O)(c1ccccc1)c1ccc(Cl)cc1)NC(=O)c1ccccc1O (centres undefined),32,> 100,22.1,29.8 µM,27.9,21.9,55.4,27.5,41.2,> 100,,,,,,,,,,
c1ccc([CH2][Sn]([CH2]c2ccccc2)([S]c2cccc3cccnc23)[S]c2cccc3cccnc23)cc1,1.19,,,,0.511,,3.15,0.366,1.06,0.864,0.303 µM,,,,0.221 µM,,1.76,0.0801,0.326 µM,0.201 µM
Cc1ncc(C(=O)Nc2ccc(CN3CCN(C)CC3)c(C(F)(F)F)c2)cc1C#Cc1c(N)ncc2ccc(C#N)cc12,17.9,14.4,17.5,2.3 µM,0.659,2.09,10.9,8.05,12.2,1.91,1.16 µM,2.82,1.74,0.451,0.029 µM,0.005 µM,1.7,0.059,3.08 µM,0.0676 µM
